Values quoted from earlier work in patent US20100092556A1, “ALFUZOSIN FORMULATIONS, METHODS OF MAKING, AND METHODS OF USE” (priority 2006, published 2010).
Where a name gives a salt, the structure may show the parent alone.

Legend:
[1] = oral administration

In the case of `COc1cc2nc(N(C)CCCNC(=O)C3CCCO3)nc(N)c2cc1OC` (racemic) [Alfuzosin hydrochloride, (R,S)—N-[3-[(4-amino-6,7-dimethoxy-2-quinazolinyl)methylamino]propyl]tetrahydro-2-furancarboxamide hydrochloride], the solubility in alcohol is listed as “sparingly soluble”, the solubility in dichloromethane is listed as “practically insoluble” and the solubility in water is listed as “freely soluble”.
For `COc1cc2nc(N(C)CCCNC(=O)C3CCCO3)nc(N)c2cc1OC` (racemic) [alfuzosin, (R,S)—N-[3-[(4-amino-6,7-dimethoxy-2-quinazolinyl)methylamino]propyl]tetrahydro-2-furancarboxamide], the “administered dose excreted unchanged in the urine” value [1] is given as 11%.
